Experimental data: patent US20240180800A1, “Oral Care Compositions Containing Stannous Ion Source” (Colgate-Palmolive Company, priority 2022, published 2024)

Assays:
Format in all cases: physicochemical
[1] = FTIR of SnF2-TSPP solution with antioxidant upon aging at 60° C.
Protocol: (§1) The effect of antioxidants on the stannous stability in the presence of tetrasodium pyrophosphate (TSPP) was examined. Samples of Sn(II) were prepared by dissolving TSPP and SnF2 in water with the final concentration of SnF2 equal to 2 wt. %. Antioxidant (butylated hydroxytoluene (BHT), butylated hydroxyanisole (BHA), or sodium ascorbyl phosphate (SAP)) was added to the samples with the molar ratio of SnF2:TSPP:antioxidant equal to 1:1:0.3. The pH of the solutions was adjusted with NaOH to pH 7. The solutions were not fully clear due to the high concentration of SnF2 and limited solubility of certain antioxidants. Some amount of the precipitate/undissolved material was evident in the vials.
Fourier transform infrared spectroscopy (FTIR): Infrared spectra were collected using a Bruker Vertex 70 FTIR spectrometer (Bruker Optics, Billerica, MA) equipped with a GladiATR diamond ATR accessory (Pike technologies, Madison, WI). The spectral range was […] and a resolution of 4 cm^−1 was used. All measurements were carried out at room temperature. The absorption spectrum of solution containing SnF2 and TSPP (herein after referred to as SnF2-TSPP) in the 850-1240 cm^−1 region at different time points: fresh, 1 week and 2 weeks aged at 60° C. was examined. […] The transformation of the complex was manifested in the peak shifts and intensity changes of phosphate bands. […]

[2] = Iodine titration of Sn(II) in SnF2-TSPP solution with antioxidant upon aging at 60° C.; details: for Sn(II) %: after 2 weeks of aging at 60° C.
Protocol: as §1
Iodine titration: The stability of Sn (II) was further examined by iodine titration assay. Titration measurements were performed through indirect titration. 2 M citric acid solution was added to the samples in excess and 0.1 N Iodine was added until the solutions turned light brown. The samples were covered with parafilm and aluminum foil and left mixing in the dark for 2 hours. Then, titration with 0.1 N sodium thiosulfate standard was performed using a 25 mL Titrette Bottletop Burette (BrandTech Scientific, Inc., Essex, CT, USA) until the solutions turned clear. Sn(II) concentration was calculated based on the amount of sodium thiosulfate and iodine used in the reaction. The amount of Sn(II) present in the SnF2-TSPP solution at different time points: fresh, 1 week and 2 weeks aged at 60° C. with and without the antioxidant (SAP, BHA, or BHT) was measured. The result is in good agreement with the FTIR result discussed above. The amount of Sn(II) was highest in the sample with SAP after 2 weeks of 60° C. aging.
(§2) In order to identify the optimal concentration of antioxidants (SAP and sodium ascorbate) that can increase stannous stability in aqueous solutions, samples of Sn(II) with TSPP and various concentrations of SAP or sodium ascorbate were tested for the stability of Sn(II). Samples of Sn(II) were prepared by dissolving TSPP and SnF2 in water with the final concentration of SnF2 equal to 2 wt %. Antioxidant (SAP or sodium ascorbate) was added to the samples with the molar ratio of SnF2:TSPP:antioxidant equal to 1:1:x, where x was between 0.05 and 0.3. The pH of the solutions was adjusted with NaOH to pH=7.
Iodine titration: The stability of Sn (II) was further examined by iodine titration assay. Titration measurements were performed as described in Example 1.

[3] = 119Sn NMR relative amount of Sn(II) in SnF2-TSPP solution with antioxidant upon aging at 60° C.; details: for Sn(II) left relative to fresh sample: SnF2:TSPP:antioxidant 1:1:0.3, pH 7, after 2 weeks of aging at 60° C.; for Sn(II) content relative to fresh sample: pH 7, after 2 weeks of aging at 60° C.
Protocol: as §1
Nuclear Magnetic Resonance (NMR): The stability of Sn (II) was further examined by Nuclear Magnetic Resonance (NMR). NMR measurements were performed on samples in the presence of 10% deuterium oxide (D20). All NMR spectra were acquired on a Bruker Avance spectrometer (Bruker-Biospin, Billerica, MA, USA) with a 5 mm liquid nitrogen cryogenic probe operating at 202 MHz for ^31P, and 186.5 MHz ^119Sn at 25° C. ^119Sn and ^31P NMR spectra were acquired on the samples of SnF2-TSPP with three antioxidants: SAP, BHA, or BHT. FIG. 3-5 show ^119Sn and ^31P NMR spectra of the samples upon aging. In the ^119Sn NMR spectra, the peak positioned at around −630 ppm corresponds to Sn(II) in solution at neutral pH. Once Sn(II) was oxidized to Sn(IV) upon aging, the Sn(II) peak intensity decreased and small Sn(IV) spikes appeared between −680 and −750 ppm. The relative amounts of Sn(II) compared to fresh sample were calculated by integrating the peak corresponding to Sn(II) in ^119Sn NMR spectra. The capacity of three […] to stabilize Sn(II) was compared by measuring the Sn(II) content in the samples. About 80% of Sn(II) was left in the samples in the presence of BHA and SAP after 2 weeks of aging at 60° C. BHT sample had 70% Sn(II) remaining after 2 weeks of aging. […] In the ^31P NMR spectra, the peak positioned at −8 ppm corresponds to TSPP.
as §2
Nuclear Magnetic Resonance (NMR): The stability of Sn (II) was further examined by Nuclear Magnetic Resonance (NMR). NMR measurements were performed as described in Example 1. ^119Sn and ^31P NMR spectra were acquired on the samples of SnF2-TSPP with SAP or sodium ascorbate at various SAP/Sn molar ratios, specifically between 0.05 and 0.3, upon aging at 60° C. FIGS. 9 and 10 show ^119Sn and ^31P NMR spectra of the samples upon aging. In the ^119Sn NMR spectra, the peak positioned at around −630 ppm corresponds to Sn(II) in solution at neutral pH. Once Sn(II) was oxidized to Sn(IV), the Sn(II) peak intensity decreased and small Sn(IV) spikes appeared between −680 and −750 ppm. […] The relative amounts of Sn(II) compared to fresh sample were quantified based on the Sn(II) NMR peak integral (FIG. 11A).

[4] = Head-space O2 consumption (differential pressure) during Sn(II) oxidation; details: 29 mM SnF2, 29 mM TSPP, SAP/Sn molar ratios 0.05 and 0.3, 25° C., about 6.5 hours, pH about 6.5
Protocol: Head-space O2 consumption: Stannous stability in presence of small amounts of SAP was further examined by measuring the rate of oxygen consumption during Sn(II) oxidation process. […] SnF2 was added last as a powder, and the flask was immediately scaled.

## COc1ccc(O)c(C(C)(C)C)c1 [BHA, butylated hydroxyanisole]
[1]; SnF2:TSPP:antioxidant 1:1:0.3, pH 7, aged 2 weeks at 60° C.
  change of phosphate vibrational bands / stability of stannous-pyrophosphate complex: improved the stability of stannous-pyrophosphate complex but were less effective than SAP
[2]; SnF2:TSPP:antioxidant 1:1:0.3, pH 7, after 2 weeks of 60° C. aging, compared to SnF2-TSPP solution alone
  amount of Sn(II) remaining: positive effect on Sn(II) stability
[3]
  Sn(II) left relative to fresh sample: About 80%

## Cc1cc(C(C)(C)C)c(O)c(C(C)(C)C)c1 [BHT, butylated hydroxytoluene]
[2]; buffer, 336 h, pH 7
  amount of Sn(II) remaining: positive effect on Sn(II) stability
[3]
  Sn(II) left relative to fresh sample: 70%

## O=C1O[C@H]([C@@H](O)CO)C([O-])=C1OP(=O)([O-])[O-].[Na+].[Na+].[Na+] [SAP, sodium ascorbyl phosphate]
[4]
  head-space differential pressure change (O2 consumption): no significant pressure drop
[2]; buffer, 336 h, pH 7
  amount of Sn(II) remaining: highest
[3]
  Sn(II) left relative to fresh sample: About 80%
[3]; higher SAP/Sn ratio (0.2, 0.3)
  Sn(II) content relative to fresh sample: 72%
[3]; lower mole ratio of SAP/Sn (0.05, 0.1)
  Sn(II) content relative to fresh sample: about 90%

## O=C1O[C@H]([C@@H](O)CO)C([O-])=C1O.[Na+] [sodium ascorbate]
[1]; antioxidant/Sn molar ratio 0.05 to 0.3, pH 7, fresh, 1 week and 2 weeks at 60° C.
  stability of stannous-pyrophosphate complex: increased the stability of the stannous-pyrophosphate complex
[2]; higher ascorbate/Sn ratio (0.2, 0.3)
  Sn(II) %: 70-75%
[2]; lower ascorbate/Sn ratio (0.05, 0.1)
  Sn(II) %: about 80%
